Measurements from ChEMBL document CHEMBL3616406, “Soluble epoxide hydrolase inhibitory activity of anthraquinone components from Aloe” (Bioorg Med Chem, 2015).
The source made the active and inactive calls. The calls are words filed in the database; no cut-off is given here.

Tests used:
[1] = biological target: T1, Bifunctional epoxide hydrolase 2 (Homo sapiens, UniProt P34913); experiment: Mixed-type inhibition of sEH (unknown origin) using PHOME as substrate assessed as formation of 6-methoxy-2-naphthaldehyde measured during 30 mins by Dixon plot analysis
T1 sequence (P34913 whole entry): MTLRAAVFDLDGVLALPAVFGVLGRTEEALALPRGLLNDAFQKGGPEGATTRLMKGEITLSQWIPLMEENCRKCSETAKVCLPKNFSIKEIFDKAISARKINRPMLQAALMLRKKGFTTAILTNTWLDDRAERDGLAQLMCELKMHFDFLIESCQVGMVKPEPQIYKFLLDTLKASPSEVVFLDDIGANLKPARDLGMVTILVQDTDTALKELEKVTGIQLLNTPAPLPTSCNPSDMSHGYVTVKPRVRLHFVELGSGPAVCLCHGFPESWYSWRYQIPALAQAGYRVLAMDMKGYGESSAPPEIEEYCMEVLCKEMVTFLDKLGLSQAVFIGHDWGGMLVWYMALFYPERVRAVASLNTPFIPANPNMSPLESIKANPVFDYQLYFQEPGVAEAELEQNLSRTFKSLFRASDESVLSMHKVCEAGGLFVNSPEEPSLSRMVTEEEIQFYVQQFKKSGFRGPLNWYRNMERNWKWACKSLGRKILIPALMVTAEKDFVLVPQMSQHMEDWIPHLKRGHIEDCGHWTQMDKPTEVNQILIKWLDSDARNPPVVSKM

[2] = biological target: T2, Bifunctional epoxide hydrolase 2 (Homo sapiens) (UniProt P34913); experiment: Inhibition of sEH (unknown origin) using PHOME as substrate assessed as formation of 6-methoxy-2-naphthaldehyde at 100 uM measured during 1 hr by fluorescence photometric analysis relative to control
T2 sequence (whole entry): T1 sequence (P34913 whole entry)

[3] = biological target: T1, Bifunctional epoxide hydrolase 2; experiment: Inhibition of sEH (unknown origin) using PHOME as substrate assessed as formation of 6-methoxy-2-naphthaldehyde measured during 1 hr by fluorescence photometric analysis
[4] = biological target: T2, Bifunctional epoxide hydrolase 2 (Homo sapiens); experiment: Mixed-type inhibition of sEH (unknown origin) using PHOME as substrate assessed as formation of 6-methoxy-2-naphthaldehyde measured during 30 mins by Lineweaver-Burk plot analysis
[5] = biological target: T1, Bifunctional epoxide hydrolase 2; experiment: Non-competitive inhibition of sEH (unknown origin) using PHOME as substrate assessed as formation of 6-methoxy-2-naphthaldehyde measured during 30 mins by Dixon plot analysis
[6] = biological target: T2, Bifunctional epoxide hydrolase 2 (Homo sapiens); experiment: Non-competitive inhibition of sEH (unknown origin) using PHOME as substrate assessed as formation of 6-methoxy-2-naphthaldehyde measured during 30 mins by Lineweaver-Burk plot analysis

SMILES | Ki [1] [µM] | inhibition [2] [%] | IC50 [3] [µM] | inhibition [4] | Ki [5] [µM] | inhibition [6]
C[C@@H]1O[C@@H](OCc2cc(O)c3c(c2)[C@H]([C@@H]2O[C@H](CO)[C@@H](O)[C@H](O)[C@H]2O)c2cccc(O)c2C3=O)[C@H](O)[C@H](O)[C@H]1O | 2 | 86.9 | 20.2 | Active | – | –
O=C1c2c(O)cccc2[C@@H]([C@@H]2O[C@H](CO)[C@@H](O)[C@H](O)[C@H]2O)c2cc(CO)cc(O)c21 | 27.8 | 62.8 | 41.1 | Active | – | –
C[C@@H]1O[C@@H](OCc2cc(O)c3c(c2)[C@](O)([C@@H]2O[C@H](CO)[C@@H](O)[C@H](O)[C@H]2O)c2cccc(O)c2C3=O)[C@H](O)[C@H](O)[C@H]1O | 10.4 | 109 | 12.5 | Active | – | –
O=C1c2c(O)cccc2C([C@@H]2O[C@H](CO)[C@@H](O)[C@H](O)[C@H]2O)c2cc(CO)cc(O)c21 (some centres not stated) [ALOIN] | 57.3 | 73.9 | 37.4 | Active | – | –
C[C@@H]1O[C@@H](OCc2cc(O)c3c(c2)[C@H]([C@@H]2OC[C@@H](O)[C@H](O)[C@H]2O)c2cccc(O)c2C3=O)[C@H](O)[C@H](O)[C@H]1O | – | 87 | 13.8 | – | 0.8 | Active
Cc1cc(O)c2c(c1)[C@H]([C@@H]1O[C@H](CO)[C@@H](O)[C@H](O)[C@H]1O)c1cccc(O)c1C2=O | 0.2 | 90.5 | 15.6 | Active | – | –
O=C1c2cc(CO)cc(O)c2C(=O)c2c1ccc([C@]1([C@@H]3O[C@H](CO)[C@@H](O)[C@H](O)[C@H]3O)c3cccc(O)c3C(=O)c3c(O)cc(CO)cc31)c2O | – | 93.1 | 4.1 | – | 15.5 | Active
O=C1c2cccc(O)c2C(=O)c2c(O)cc(CO)cc21 [ALOE-EMODIN] | – | 79.9 | 26.8 | – | 52.2 | Active
